Among the data in the NIST ThermoML archive (doi:10.1021/je700297c) are activity coefficient values, retold here.

Numbers after ± are expanded uncertainties.

This data set in a line: activity coefficient (dimensionless); of the first substance listed, at infinite dilution; xn = mol fraction of the nth substance listed. The settings on record: Liquid, Chromatography, x1 = 0.

As to `CCCCCCC` [heptane] + C[n+]1ccn(CCCC#N)c1.O=S(=O)([N-]S(=O)(=O)C(F)(F)F)C(F)(F)F, the activity coefficient was 134 ± 9.2 (303 K) and 126 ± 8.7 (323 K).

With `Cc1ccccc1` [toluene] + CCCCn1cc[n+](C)c1.F[B-](F)(F)F, the activity coefficient is, setting by setting: (298 K) 2.5 ± 0.2; (323 K) 2.4 ± 0.2.

With `CC1CCCCC1` [methylcyclohexane] + CCCCCCCC[n+]1ccn(C)c1.F[B-](F)(F)F, the activity coefficient reads like this: (298 K) 6.7 ± 0.5; (323 K) 5.3 ± 0.4.

For `CCCCCCCC` [octane] + CCCCCCCCCCCCCCCC(=O)[O-].CCCCn1cc[n+](C)c1, the activity coefficient (333 K) is 1.6 ± 0.1.

Turning to `CCCCCCCC` [octane] + C[n+]1ccn(CCCC#N)c1.N#CN=C=[N-], the activity coefficient stood at 264 ± 18 (303 K) and 204 ± 14 (323 K).

Regarding `CC1CCCCC1` [methylcyclohexane] + CCCCCCCCCCCCCCCC(=O)[O-].CCCCn1cc[n+](C)c1, under “333 K”, the activity coefficient is 1 ± 0.1.

With `C1CCCCC1` [cyclohexane] + CCCCCCCCCCCCCCCC(=O)[O-].CCCCn1cc[n+](C)c1, the activity coefficient (333 K) is 0.9 ± 0.1.

As for `CCCCCC` [hexane] + CCCCCCCC[n+]1ccn(C)c1.F[B-](F)(F)F, the activity coefficient was 8.6 ± 0.6 (298 K) and 6.7 ± 0.5 (323 K).

Take `C1CCOC1` [tetrahydrofuran] + C[n+]1ccn(CCCC#N)c1.N#CN=C=[N-]: the activity coefficient was determined as 1.6 ± 0.1 (303 K) and 1.5 ± 0.1 (323 K).

On to `O` [water] + C[n+]1ccn(CCCC#N)c1.O=S(=O)([N-]S(=O)(=O)C(F)(F)F)C(F)(F)F, for which the activity coefficient (323 K) worked out at 1.8 ± 0.1.

As for `C1CCCCC1` [cyclohexane] + CCCC[n+]1ccn(C)c1.O=S(=O)([N-]S(=O)(=O)C(F)(F)F)C(F)(F)F, under “323 K”, the activity coefficient is 6.7 ± 0.5.

Regarding `C1CCCCC1` [cyclohexane] + CCCCCCCCCCCCCCCCCC(=O)[O-].CCCCn1cc[n+](C)c1, the activity coefficient came to 1.1 ± 0.1 (323 K) and 1.2 ± 0.1 (333 K).

For `CCOC(C)=O` [ethyl acetate] + CCCCCCCCCCCCCCCC(=O)[O-].CCCCn1cc[n+](C)c1, the activity coefficient (333 K) was 1 ± 0.1.

Take `CCO` [ethanol] + CCCCn1cc[n+](C)c1.F[B-](F)(F)F: the activity coefficient is, setting by setting: (298 K) 1.1 ± 0.1; (323 K) 1 ± 0.1.

As to `C1CCOC1` [tetrahydrofuran] + CCCCCCCCCCCCCCCCCC(=O)[O-].CCCCn1cc[n+](C)c1, the activity coefficient came out at 0.7 ± 0.1 (323 K) and 0.6 ± 0.1 (333 K).

On to `CCOC(C)=O` [ethyl acetate] + CCCCn1cc[n+](C)c1.F[B-](F)(F)F, for which the activity coefficient amounted to 1.8 ± 0.1 (298 K) and 1.7 ± 0.1 (323 K).

With `C=CCCCC` [hex-1-ene] + C[n+]1ccn(CCCC#N)c1.N#CN=C=[N-], the activity coefficient was found to be 71.7 ± 4.9 (303 K) and 60.4 ± 4.1 (323 K).

Consider `CCO` [ethanol] + C[n+]1ccn(CCCC#N)c1.N#CN=C=[N-], for which the activity coefficient was 0.5 ± 0.1 (303 K) and 0.4 ± 0.1 (323 K).

As for `c1ccsc1` [thiophene] + CCCC[n+]1ccn(C)c1.O=S(=O)([N-]S(=O)(=O)C(F)(F)F)C(F)(F)F, the activity coefficient (323 K) stood at 0.7 ± 0.1.

Turning to `C=CCCCCCC` [oct-1-ene] + CCCC[n+]1ccn(C)c1.O=S(=O)([N-]S(=O)(=O)C(F)(F)F)C(F)(F)F, the activity coefficient (323 K) came to 12.3 ± 0.8.

For `c1ccsc1` [thiophene] + C[n+]1ccn(CCCC#N)c1.O=S(=O)([N-]S(=O)(=O)C(F)(F)F)C(F)(F)F, the activity coefficient is, setting by setting: (303 K) 1.5 ± 0.1; (323 K) 1.4 ± 0.1.

For `CO` [methanol] + C[n+]1ccn(CCCC#N)c1.O=S(=O)([N-]S(=O)(=O)C(F)(F)F)C(F)(F)F, the activity coefficient worked out at 1.1 ± 0.1 (303 K) and 1 ± 0.1 (323 K).

For the molecule `CCOC(C)=O` [ethyl acetate] + CCCCCCCCCCCCCCCCCC(=O)[O-].CCCCn1cc[n+](C)c1, the activity coefficient came to 1.1 ± 0.1 (323 K) and 1.1 ± 0.1 (333 K).
